# In patent US11946059B2, “In vivo generation of water-soluble cannabinoids in plant cell suspension cultures” (Trait Biosciences Inc., priority 2017, dated 2024):
# Assay: Cannabinoid stability in solution (time course incubation)
# Type: physicochemical
# Details: for Day 0 concentration in solution / Day 1 concentration in solution / Day 4 concentration in solution / Day 5 concentration in solution / Day 6 concentration in solution / Day 7 concentration in solution: room temperature, shielded from light
# Experimental: Rather, levels increased slightly in all treatments. The absence of any residual UGTs were cross-check and confirmed as the samples were purified by SPE, washed and eluted in 30% and 65%-100% ethanol, respectively.
# Materials and Methods Example 19: Cannabinoid Stability in Solution.
# The present inventors generated a stock solution of the CBD/CBDA+glycosides mixture in water which was further diluted 10× in all treatment solutions. A 10 mL starting volume was used for all treatments, and all treatments were prepared in triplicate. […] Each sample was incubated at room temperature. Samples were stored in 15 mL polypropylene centrifuge tubes. All samples were shielded from light—tubes were wrapped in aluminum foil. Each sample was prepared in triplicate in the following buffers: water only; pH=3; pH=4; pH=7; pH=8; water only+10 mM ascorbic acid; pH=3+10 mM ascorbic acid; pH=4+10 mM ascorbic acid; pH=7+10 mM ascorbic acid; and pH=8+10 mM ascorbic acid.
# [1] = Water + AA (10 mM ascorbic acid)
# [2] = pH = 3 + AA (10 mM ascorbic acid)
# [3] = pH = 4 + AA (10 mM ascorbic acid)
# [4] = pH = 7 + AA (10 mM ascorbic acid)
# [5] = pH = 8 + AA (10 mM ascorbic acid)
smiles,measurement,setting,value
C=C(C)C1CCC(C)=CC1c1c(O)cc(CCCCC)cc1OC1OC(COC(C)=O)C(O)C(O)C1O (stereo not shown) [1X CBD O-Acetyl Gly],Day 0 concentration in solution,[1],102.24 ± 12.18 µg/mL
same,Day 0 concentration in solution,Water,137.46 ± 35.49 µg/mL
same,Day 0 concentration in solution,[2],110.44 ± 13.31 µg/mL
same,Day 0 concentration in solution,pH = 3,126.49 ± 43.90 µg/mL
same,Day 0 concentration in solution,[3],118.27 ± 1.16 µg/mL
same,Day 0 concentration in solution,pH = 4,101.60 ± 31.49 µg/mL
same,Day 0 concentration in solution,[4],108.19 ± 19.12 µg/mL
same,Day 0 concentration in solution,pH = 7,107.55 ± 20.03 µg/mL
same,Day 0 concentration in solution,[5],137.53 ± 6.71 µg/mL
same,Day 0 concentration in solution,pH = 8,108.41 ± 12.42 µg/mL
same,Day 1 concentration in solution,[1],204.63 ± 24.09 µg/mL
same,Day 1 concentration in solution,Water,136.86 ± 139.68 µg/mL
same,Day 1 concentration in solution,[2],223.32 ± 48.67 µg/mL
same,Day 1 concentration in solution,pH = 3,216.46 ± 9.61 µg/mL
same,Day 1 concentration in solution,[3],198.56 ± 24.37 µg/mL
same,Day 1 concentration in solution,pH = 4,150.94 ± 27.25 µg/mL
same,Day 1 concentration in solution,[4],185.02 ± 35.46 µg/mL
same,Day 1 concentration in solution,pH = 7,250.75 ± 6.23 µg/mL
same,Day 1 concentration in solution,[5],180.83 ± 33.60 µg/mL
same,Day 1 concentration in solution,pH = 8,221.10 ± 16.30 µg/mL
same,Day 4 concentration in solution,[1],153.06 ± 28.19 µg/mL
same,Day 4 concentration in solution,Water,160.23 ± 23.75 µg/mL
same,Day 4 concentration in solution,[2],157.19 ± 1.58 µg/mL
same,Day 4 concentration in solution,pH = 3,174.88 ± 14.16 µg/mL
same,Day 4 concentration in solution,[3],144.44 ± 18.85 µg/mL
same,Day 4 concentration in solution,pH = 4,225.84 ± 39.59 µg/mL
same,Day 4 concentration in solution,[4],176.48 ± 33.58 µg/mL
same,Day 4 concentration in solution,pH = 7,190.05 ± 24.38 µg/mL
same,Day 4 concentration in solution,[5],152.03 ± 5.79 µg/mL
same,Day 4 concentration in solution,pH = 8,174.09 ± 59.87 µg/mL
same,Day 5 concentration in solution,[1],146.60 ± 10.68 µg/mL
same,Day 5 concentration in solution,Water,131.77 ± 33.91 µg/mL
same,Day 5 concentration in solution,[2],97.81 ± 29.67 µg/mL
same,Day 5 concentration in solution,pH = 3,83.72 ± 35.56 µg/mL
same,Day 5 concentration in solution,[3],113.89 ± 31.15 µg/mL
same,Day 5 concentration in solution,pH = 4,164.84 ± 35.61 µg/mL
same,Day 5 concentration in solution,[4],110.66 ± 48.12 µg/mL
same,Day 5 concentration in solution,pH = 7,186.93 ± 5.65 µg/mL
same,Day 5 concentration in solution,[5],92.06 ± 15.47 µg/mL
same,Day 5 concentration in solution,pH = 8,162.75 ± 31.35 µg/mL
same,Day 6 concentration in solution,[1],200.20 ± 37.42 µg/mL
same,Day 6 concentration in solution,Water,148.36 ± 33.57 µg/mL
same,Day 6 concentration in solution,[2],190.69 ± 36.71 µg/mL
same,Day 6 concentration in solution,pH = 3,175.06 ± 31.37 µg/mL
same,Day 6 concentration in solution,[3],215.72 ± 16.69 µg/mL
same,Day 6 concentration in solution,pH = 4,231.03 ± 36.34 µg/mL
same,Day 6 concentration in solution,[4],205.61 ± 26.64 µg/mL
same,Day 6 concentration in solution,pH = 7,267.45 ± 30.83 µg/mL
same,Day 6 concentration in solution,[5],217.66 ± 11.23 µg/mL
same,Day 6 concentration in solution,pH = 8,218.64 ± 22.05 µg/mL
same,Day 7 concentration in solution,[1],167.42 ± 22.79 µg/mL
same,Day 7 concentration in solution,Water,185.62 ± 22.87 µg/mL
same,Day 7 concentration in solution,[2],147.21 ± 8.07 µg/mL
same,Day 7 concentration in solution,pH = 3,195.77 ± 15.07 µg/mL
same,Day 7 concentration in solution,[3],166.23 ± 17.10 µg/mL
same,Day 7 concentration in solution,pH = 4,201.23 ± 6.99 µg/mL
same,Day 7 concentration in solution,[4],157.89 ± 17.21 µg/mL
same,Day 7 concentration in solution,pH = 7,187.10 ± 28.07 µg/mL
same,Day 7 concentration in solution,[5],181.7 ± 29.53 µg/mL
same,Day 7 concentration in solution,pH = 8,193.61 ± 21.84 µg/mL
same,change of level in solution over the incubation,"all treatments, after day 7, room temperature",not found to decrease in any sample after day 7
